Reference: article PMC8623179, “Design and Microwave Synthesis of New (5Z) 5-Arylidene-2-thioxo-1,3-thiazolinidin-4-one and (5Z) 2-Amino-5-arylidene-1,3-thiazol-4(5H)-one as New Inhibitors of Protein Kinase DYRK1A” (Pharmaceuticals, 2021)
Like-named read-outs stand apart in the source and are kept apart here.

How the values were obtained:
CDK5/p25 = target: T1, CDK5/p25 (Homo sapiens, UniProt Q00535); experiment: CDK5/p25 kinase assay; assay type: biochemical; details: 15 μM ATP
T1 construct: made in house
Method: (§1) The twenty-two (5Z) 5-arylidene-2-thioxo-1,3-thiazolidin-4-ones 3a–v and the twenty-four (5Z) 2-amino-5-arylidene-1,3-thiazolidin-4(5H)-ones 5a–x were evaluated against four different and representative in vitro kinase assays DYRK1A (dual specificity tyrosine phosphorylation regulated kinase), CK1 δ/e (caseine kinase 1), CDK5/p25 (cyclin dependant kinase), and GSK3 α/β (glycogen synthase kinase 3) to evaluate their inhibition potency. […] All the compounds were initially tested at a 10 μM concentration.
(§2) After 30-min incubation at 30 °C, the reaction was stopped by harvesting, using a FilterMate harvester (Packard), onto P81 phospho-cellulose papers (GE Healthcare, Chicago, IL, USA) which were washed in 1% phosphoric acid. Scintillation fluid was added and the radioactivity measured in a Packard counter. Blank values were subtracted and activities calculated as pmoles of phosphate incorporated for the 30-min incubation. The activities were expressed in % of the maximal activity, i.e., in the absence of inhibitors. Controls were performed with appropriate dilutions of DMSO.
CDK5/p25 (human, recombinant) was prepared as previously described. […] ATP (3000 Ci/mmol; 10 mCi/mL) in a final volume of 30 μL. After 30-min incubation at 30 °C, 25 μL aliquots of supernatant were spotted onto 2.5 × 3 cm pieces of Whatman P81 phospho-cellulose paper, and, 20 s later, the filters were washed five times (for at least 5 min each time) in a solution of 10 mL phosphoric acid/litter of water. The wet filters were counted in the presence of 1 mL ACS (Amersham, UK) scintillation fluid.

DYRK1A = target: T2, DYRK1A (Rattus norvegicus, UniProt Q63470); experiment: DYRK1A kinase assay; assay type: biochemical; details: 15 μM ATP
T2 construct: GST; made in house; host or cells: Escherichia coli
Method: as §1
as §2, with “DMSO. […]” for “DMSO.”

Casein kinase 1 (CK1δ/ε) = experiment: CK1δ/ε kinase assay; assay type: biochemical, porcine; details: 15 μM ATP, read-out: IC50 CK1
Method: as §1, §2
Casein kinase 1 (CK1δ/ε) (porcine brain, native) was assayed with 0.67 µg of CKS peptide ([…]pSAYSITA), a CK1 specific substrate obtained from Millegen (Labege, France).

GSK-3α/β = GSK-3α/β kinase assay; assay type: biochemical, porcine; details: 15 μM ATP, read-out: IC50 GSK3α/β
Method: as §1, §2
GSK-3α/β (porcine brain, native) was assayed, as described for CDK5/p25 but in Buffer A and using a GSK-3 specific substrate (GS-1: […]pEDEEE) (pS stands for phosphorylated serine). GS-1 was synthesized by Millegen (Labege, France).

T1 sequence (Q00535 whole entry): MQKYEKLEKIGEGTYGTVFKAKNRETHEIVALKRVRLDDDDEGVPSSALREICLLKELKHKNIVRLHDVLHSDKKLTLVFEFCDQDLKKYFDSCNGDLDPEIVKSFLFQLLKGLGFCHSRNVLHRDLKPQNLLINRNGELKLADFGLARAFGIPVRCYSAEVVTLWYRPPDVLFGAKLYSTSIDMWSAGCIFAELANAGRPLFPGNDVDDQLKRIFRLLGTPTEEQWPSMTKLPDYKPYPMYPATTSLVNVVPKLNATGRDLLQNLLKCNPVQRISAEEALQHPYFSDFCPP
T1 sequence (Q15078 99-307 partner limits assumed): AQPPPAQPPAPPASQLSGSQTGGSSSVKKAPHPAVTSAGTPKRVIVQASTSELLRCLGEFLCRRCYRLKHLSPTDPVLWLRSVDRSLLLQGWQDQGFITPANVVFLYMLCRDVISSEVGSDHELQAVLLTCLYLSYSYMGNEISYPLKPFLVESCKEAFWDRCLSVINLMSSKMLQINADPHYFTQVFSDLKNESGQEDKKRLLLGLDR

| SMILES | IC50 (CDK5/p25; Table 5) | IC50 (DYRK1A; Table 5) | IC50 (Casein kinase 1 (CK1δ/ε); Table 5) | IC50 (GSK-3α/β; Table 5) | IC50 (CDK5/p25; Table 4) | IC50 (DYRK1A; Table 4) | IC50 (Casein kinase 1 (CK1δ/ε); Table 4) | IC50 (GSK-3α/β; Table 4) |
| --- | --- | --- | --- | --- | --- | --- | --- | --- |
| COc1ccc(/C=C2\SC(N3CCSCC3)=NC2=O)cc1OC [Compound 5h, (5Z)-5-(3,4-Dimethoxybenzylidene)-2-(thiomorpholin-1-yl)-1,3-thiazol-4(5H)-one] | > 10 µM | > 10 µM | > 10 µM | > 10 µM |  |  |  |  |
| O=C1NC(=S)S/C1=C\c1ccc2c(c1)CCCO2 [Compound 3m, (5Z)-5-(Chroman-6-yl)methylene-2-thioxo-1,3-thiazolidin-4-one] |  |  |  |  | > 10 µM | 6.5 µM | > 10 µM | > 10 µM |
| O=C1N=C(Nc2ccccn2)S/C1=C\c1ccc2c(c1)OCO2 [Compound 5s, (5Z)-5-Benzo[1,3]dioxol-5-ylmethylene-2-(pyridin-2-yl)amino-1,3-thiazol-4(5H)-one] | > 10 µM | 0.033 µM | > 10 µM | ≤ 10 µM |  |  |  |  |
| COc1ccc(NC2=NC(=O)/C(=C/c3ccc4c(c3)OCO4)S2)cc1 [Compound 5u, (5Z)-5-Benzo[1,3]dioxol-5-ylmethylene-2-(4-methoxy-phenylamino)-1,3-thiazol-4(5H)-one] | > 10 µM | 0.9 µM | > 10 µM | > 10 µM |  |  |  |  |
| O=C1NC(=S)S/C1=C\c1ccc2c(c1)OCCCO2 [Compound 3n, (5Z)-5-(3,4-Dihydro-2H-1,5-benzodioxepine-7-yl)methylene-2-thioxo-1,3-thiazolidin-4-one] |  |  |  |  | > 10 µM | > 10 µM | > 10 µM | > 10 µM |
| O=C1NC(=S)S/C1=C\c1ccc(O)cc1 [Compound 3e, (5Z)-5-(4-Hydroxybenzylidene)-2-thioxo-1,3-thiazolidin-4-one] |  |  |  |  | > 10 µM | 0.028 µM | > 10 µM | > 10 µM |
| O=C1N=C(N2CCSCC2)S/C1=C\c1ccc2c(c1)OCCO2 [Compound 5q, (5Z)-5-(2,3-Dihydro-1,4-benzodioxin-6-ylmethylene)-2-(thiomorpholin-4-yl)-1,3-thiazol-4(5H)-one] | > 10 µM | 0.17 µM | > 10 µM | 3.7 µM |  |  |  |  |
| O=C(Cc1ccccc1)NN1C(=O)/C(=C/c2ccc3c(c2)OCO3)SC1=S [Compound 3q, (5Z)-N-(5-Benzo[1,3]dioxol-5-ylmethylene-4-oxo-2-thioxo-thiazolidin-3-yl)-2-phenyl-acetamide] |  |  |  |  | > 10 µM | > 10 µM | > 10 µM | > 10 µM |
| O=C1N=C(Nc2ccncc2)S/C1=C\c1ccc2c(c1)OCO2 [Compound 5t, (5Z)-5-Benzo[1,3]dioxol-5-ylmethylene-2-(pyridin-4-yl)amino-1,3-thiazol-4(5H)-one] | > 10 µM | > 10 µM | > 10 µM | > 10 µM |  |  |  |  |
| O=C1N=C(N2CCOCC2)S/C1=C\c1ccc2c(c1)CCO2 [Compound 5m, (5Z)-5-(2,3-Dihydro-benzofuran-5-ylmethylene)-2-(morpholin-4-yl)-1,3-thiazol-4(5H)-one] | > 10 µM | 0.6 µM | > 10 µM | ≥ 10 µM |  |  |  |  |
| O=C1N=C(Nc2ccccc2)S/C1=C\c1ccc2c(c1)OCO2 [Compound 5r, (5Z)-5-Benzo[1,3]dioxol-5-ylmethylene-2-phenylamino-1,3-thiazol-4(5H)-one] | > 10 µM | 0.61 µM | > 10 µM | > 10 µM |  |  |  |  |
| O=C1N=C(N2CCCCC2)S/C1=C\c1ccc2c(c1)CCO2 [Compound 5o, (5Z)-5-(2,3-Dihydro-benzofuran-5-ylmethylene)-2-(piperidin-1-yl)-1,3-thiazol-4(5H)-one] | > 10 µM | 0.09 µM | ≥ 10 µM | 4.7 µM |  |  |  |  |
| O=C1N=C(N2CCCCC2)S/C1=C\c1ccc2c(c1)OCCO2 [Compound 5p, (5Z)-5-(2,3-Dihydro-1,4-benzodioxin-6-ylmethylene)-2-(piperidin-1-yl)-1,3-thiazol-4(5H)-one] | > 10 µM | 0.94 µM | ≥ 10 µM | > 10 µM |  |  |  |  |
| O=C1N=C(N2CCSCC2)S/C1=C\c1ccc2c(c1)CCO2 [Compound 5n, (5Z)-5-(2,3-Dihydro-benzofuran-5-ylmethylene)-2-(thiomorpholin-4-yl)-1,3-thiazol-4(5H)-one] | > 10 µM | 0.07 µM | > 10 µM | 5.3 µM |  |  |  |  |
| O=C1N=C(Nc2ccccc2)S/C1=C\c1ccc2c(c1)CCO2 [Compound 5w, (5Z)-5-(2,3-Dihydro-benzofuran-5-ylmethylene)-2-phenylamino-1,3-thiazol-4(5H)-one] | > 10 µM | 0.12 µM | > 10 µM | > 10 µM |  |  |  |  |
| O=C1N=C(N2CCNCC2)S/C1=C\c1ccc2c(c1)OCO2 [Compound 5e, (5Z)-5-(1,3-Benzodioxol-5-ylmethylene)-2-(piperazin-1-yl)-1,3-thiazol-4(5H)-one] | > 10 µM | 1.8 µM | > 10 µM | ≤ 8.8 µM |  |  |  |  |
| O=C1N=C(Nc2ccccc2)S/C1=C\c1ccc2c(c1)OCCO2 [Compound 5x, (5Z)-5-(2,3-Dihydro-benzo[1,4]dioxin-6-ylmethylene)-2-phenylamino-1,3-thiazol-4(5H)-one] | > 10 µM | 0.27 µM | > 10 µM | > 10 µM |  |  |  |  |
| O=C1/C(=C/c2ccc3c(c2)OCO3)SC(=S)N1NS(=O)(=O)c1ccccc1 [Compound 3t, (5Z)-N-(5-Benzo[1,3]dioxol-5-ylmethylene-4-oxo-2-thioxo-thiazolidin-3-yl)-benzenesulfonamide] |  |  |  |  | > 10 µM | > 10 µM | > 10 µM | > 10 µM |
| O=C1N=C(N2CCCCC2)S/C1=C\c1ccc2c(c1)OCO2 [Compound 5i, (5Z)-5-(1,3-Benzodioxol-5-ylmethylene)-2-(piperidin-1-yl)-1,3-thiazol-4(5H)-one] | > 10 µM | 0.053 µM | > 10 µM | 7.4 µM |  |  |  |  |
| O=C1N=C(N2CCSCC2)S/C1=C\c1ccc2c(c1)OCO2 [Compound 5g, (5Z)-5-(1,3-Benzodioxol-5-ylmethylene)-2-(thiomorpholin-1-yl)-1,3-thiazol-4(5H)-one] | > 10 µM | 0.4 µM | > 10 µM | ≥ 10 µM |  |  |  |  |
| COc1ccc(/C=C2\SC(N3CCOCC3)=NC2=O)cc1OC [Compound 5b, (5Z)-5-(3,4-Dimethoxybenzylidene)-2-(morpholin-1-yl)-1,3-thiazol-4(5H)-one] | > 10 µM | > 10 µM | > 10 µM | > 10 µM |  |  |  |  |
| O=C(NN1C(=O)/C(=C/c2ccc3c(c2)OCO3)SC1=S)c1ccccc1 [Compound 3p, (5Z)-N-(5-Benzo[1,3]dioxol-5-ylmethylene-4-oxo-2-thioxo-thiazolidin-3-yl)-benzamide] |  |  |  |  | > 10 µM | > 10 µM | > 10 µM | > 10 µM |
| O=C1N=C(Nc2ccc(Cl)cc2)S/C1=C\c1ccc2c(c1)OCO2 [Compound 5v, (5Z)-5-Benzo[1,3]dioxol-5-ylmethylene-2-(4-chloro-phenylamino)-1,3-thiazol-4(5H)-one] | > 10 µM | 9 µM | > 10 µM | > 10 µM |  |  |  |  |
| O=C1N=C(N2CCN(c3ncccn3)CC2)S/C1=C\c1ccc2c(c1)OCO2 [Compound 5l, (5Z)-5-(1,3-Benzodioxol-5-ylmethylene)-2-[4-(pyrimidin-2-yl)piperazin-1-yl]-1,3-thiazol-4(5H)-one] | > 10 µM | 1.8 µM | > 10 µM | > 10 µM |  |  |  |  |
| O=C1N=C(N2CCN(c3ccc(F)cc3)CC2)S/C1=C\c1ccc2c(c1)OCO2 [Compound 5k, (5Z)-5-(1,3-Benzodioxol-5-ylmethylene)-2-[1-(4-fluorophenyl)piperazin-1-yl]-1,3-thiazol-4(5H)-one] | > 10 µM | 1.6 µM | > 10 µM | > 10 µM |  |  |  |  |
| NN1C(=O)/C(=C/c2ccc3c(c2)OCO3)SC1=S [Compound 3o, (5Z)-3-Amino-5-benzo[1,3]dioxol-5-ylmethylene-2-thioxo-thiazolidin-4-one] |  |  |  |  | > 10 µM | > 10 µM | > 10 µM | > 10 µM |
